{
  "source": "patent US7597904B2",
  "about": "“Metalloproteinase inhibitory agent” (Nestec S.A., priority 2004, dated 2009)",
  "key": {"[1]": {"system": "HT-29 cells", "assay": "Proliferation assay of HT-29 cells with caseinate hydrolysates and fractions (neutral red, OD 540 nm)", "format": "cell-based, human", "description": "Culture of Human Intestinal Epithelial Cells (IECs) and Proliferation Assay\n• Human colonic adenocarcinoma cell line HT29 (ATCC: HTB-38) from the American Type Culture Collection (ATCC, Manassas, Va.). • DMEM, high glucose (4.5 g/l), with stable glutamine (BioConcept, AMIMED, Allschwil, Switzerland)\nUndifferentiated cells (passages 45-78) were maintained in glucose-containing DMEM supplemented with 10% FCS at 37° C. in a 5% CO2/air incubator. Culture medium was changed every two days until the cell monolayers reached 50% confluence. For stimulation assays, HT-29 cells were plated at 1.2*10^4 cells/well in 96-well flat-bottom plates. After incubation for 4 days, the amount of cells present in the wells before incubation with the samples was assessed adding neutral red solution in 4 wells and incubating the plate for 45 min. The HT-29 cells were then washed twice with serum-free media (inclusive the wells with neutral red solution). The wells colored with neutral red remained from now on free of any media.\nHT-29 cells were then incubated 24 hours respectively in the presence of 80 μg (hydrolysed) sodium caseinate samples in 200 μl DMEM, in 200 μl serum-free medium (blank), in 200 μl medium with serum (positive control) or in 0.9% saline solution (negative control). […] The dye was finally extracted with 100 μl of an extraction solution and the optical density measured at 540 nm. The optical density measured correlates with the number of cells present in the wells.\nThe proliferation was calculated by the difference in absorbance between the cells having been incubated 24 hours with sodium caseinate samples, with serum-free medium, with medium containing serum or with 0.9% saline solution and the cells before incubation.\nThe difference in absorbance ΔA540 from the blank (cells incubated with serum-free medium) was normalized. The results were then expressed as percentage with respect to the blank. • Culture medium with serum: DMEM was supplemented with 10% decomplemented FCS and 1% Penicillin-Streptomycin. […]"}, "[2]": {"system": "HT-29 cells", "assay": "Lactate dehydrogenase cytotoxicity test", "format": "cell-based, human", "details": "Table 4; HT-29, LDH released, 24 hours incubation", "description": "Lactate Dehydrogenase Cytotoxicity Test\nCell viability was rigorously measured according the manufacturer's recommendations (Roche Diagnostics). The test is based on the measurement of lactate dehydrogenase (LDH) activity released from the cytosol of damaged cells in the supernatant.\nMost current assays for measuring cytotoxicity are based on alterations of plasma membrane permeability and the consequent release of cytoplasmic enzymes or the uptake of dyes, normally excluded by viable cells. We here chose to measure the lactate dehydrogenase (LDH) activity released from damaged cells."}},
  "data": [
    {"substance": "sodium caseinate", "values": [
      {"measurement": "antiproliferative activity (in words)", "setting": "[1]; HT-29 cells", "value": "no activity"},
      {"measurement": "% prolif (percentage of OD at 540 nm with respect to the control (−serum))", "setting": "[1]; Table 2, HT-29, 24 hours incubation, 80 μg sample in 200 μl DMEM", "value": "93 +/− 12%"},
      {"measurement": "% prolif (percentage of OD at 540 nm with respect to the control (−serum))", "setting": "[1]; Table 3, HT-29, active fraction with or without heat / enzyme treatment (alcalase, proteinase A)", "value": "93 +/− 7%"},
      {"measurement": "cytotoxic potential, percentage of OD at 490 nm with respect to the control (lysate); row head % prolif", "setting": "[2]", "value": "9 +/− 3%"}
    ]}
  ]
}
